Measured values taken from US20030170694A1, “Stabilized nucleic acids in gene and drug discovery and methods of use” (priority 2001, published 2003).
Values after ≈ are worked out from the molar mass of the structure shown. Read-outs that look alike come from different tables or passages of the source. Positions of bridges follow the written chain, without caps; N, C: chain ends. Non-standard residues stand in square brackets, D forms with d. Residues, ends and D or L forms follow the SMILES beside them. *: point of attachment. Ileψ(thiazoline)Cys = CC[C@H](C)[C@H](N)C1=N[C@H](C(=O)*)CS1; dOrn = NCCC[C@@H](N)C(=O)O

Key:
[1] = system: E. coli cells transcribing antisense RNA to rplL and rplJ (AS-rplL/J); assay: microbe, parasite or virus in culture; type: cell-based; settings: for Fold Increase: IC50 without IPTG vs IC50 with 400 μM IPTG; for Sensitivity (increased sensitivity observed in the presence of IPTG): statistically significant decrease in IC50 in the presence of inducer; for IC50: Escherichia coli
Protocol: Antibiotics of various chemical classes and modes of action were purchased from Sigma Chemicals (St. Louis, Mo.). Stock solutions were prepared by dissolving each antibiotic in an appropriate aqueous solution based on information provided by the manufacturer. The final working solution of each antibiotic contained no more than 0.2% (w/v) of any organic solvent. To determine their potency against a bacterial strain engineered for transcription of an antisense comprising a nucleotide sequence complementary to a proliferation-required 50S ribosomal protein, each antibiotic was serially diluted two-or three-fold in growth medium supplemented with the appropriate antibiotic for maintenance of the antisense construct. At least ten dilutions were prepared for each antibiotic. 25 μL aliquots of each dilution were transferred to discrete wells of a 384-well microplate (the assay plate) using a multi-channel pipette. Quadruplicate wells were used for each dilution of an antibiotic under each treatment condition (plus and minus inducer). Each assay plate contained twenty wells for cell growth controls (growth medium replacing antibiotic), ten wells for each treatment (plus and minus inducer, in this example IPTG). Assay plates were usually divided into the two treatments: half the plate containing induced cells and an appropriate concentrations of inducer (in this example IPTG) to maintain the state of induction, the other half containing non-induced cells in the absence of IPTG.
Cells for the assay were prepared as follows. Bacterial cells containing a construct, from which transcription of antisense nucleic acid comprising a nucleotide sequence complementary to rplL and rplJ (AS-rplL/J), which encode proliferation-required 50S ribosomal subunit proteins, is inducible in the presence of IPTG, were grown into exponential growth (OD600 0.2 to 0.3) and then diluted 1:100 into fresh medium containing either 400 μM or 0 μM inducer (IPTG). These cultures were incubated at 37° C. for 2.5 hr. After a 2.5 hr incubation, induced and non-induced cells were respectively diluted into an assay medium at a final OD600 value of 0.0004. The medium contained an appropriate concentration of the antibiotic for the maintenance of the antisense construct. In addition, the medium used to dilute induced cells was supplemented with 800 μM IPTG so that addition to the assay plate would result in a final IPTG concentration of 400 μM. Induced and non-induced cell suspensions were dispensed (25 μl/well) into the appropriate wells of the assay plate as discussed previously. The plate was then loaded into a plate reader, incubated at constant temperature, and cell growth was monitored in each well by the measurement of light scattering at 595 nm. Growth was monitored every 5 minutes until the cell culture attained a stationary growth phase. For each concentration of antibiotic, a percentage inhibition of growth was calculated at the time point corresponding to mid-exponential growth for the associated control wells (no antibiotic, plus or minus IPTG). For each antibiotic and condition (plus or minus IPTG), a plot of percent inhibition versus log of antibiotic concentration was generated and the IC50 determined.

[2] = system: E. coli transformed with IPTG-inducible antisense clones; assay: Cell-based assay of antibiotic sensitivity in E. coli transcribing non-stabilized antisense RNA
Description: The effectiveness of the above cell-based assays in which the level or activity of a gene product required for proliferation was reduced was validated using constructs transcribing a non-stabilized antisense RNA to the proliferation required E. coli genes rplL, rplJ and rplW encoding ribosomal proteins L7/L12, L10 and L23 respectively. These proteins are essential components of the protein synthesis apparatus of the cell and as such are required for proliferation. Constructs transcribing antisense RNA to several other genes (elaD, visC, yohH, and atpE/B), the products of which are not involved in protein synthesis were used for comparison.
First, pLex5BA (Krause et al., J. Mol. Biol. 274: 365 (1997), the disclosure of which is incorporated herein by reference in its entirety) vectors containing antisense constructs to either rplW or to elaD were introduced into separate E. coli cell populations. […]
The cell populations containing vectors producing AS-elaD or AS-rplW were exposed to a range of IPTG concentrations in liquid medium to obtain the growth inhibitory dose curve for each clone (FIG. 5). First, seed cultures were grown to a particular turbidity measured by the optical density (OD) of the growth solution. […] The cells were grown for up to 15 hours and the extent of growth was determined by measuring the optical density of the cultures at 600 nm. […]

Compound	Fold Increase [1]	Sensitivity (increased sensitivity observed in the presence of IPTG) [1]	other results
CC(=O)O[C@H]1C[C@@]2(C)[C@@H](C[C@@H](O)[C@H]3[C@@]4(C)CC[C@@H](O)[C@@H](C)[C@@H]4CC[C@@]32C)/C1=C(\CCC=C(C)C)C(=O)O [Fusidic acid]	94	Yes	–
CCC[C@@H]1C[C@@H](C(=O)N[C@@H]([C@H]2O[C@H](SC)[C@H](O)[C@@H](O)[C@H]2O)[C@@H](C)O)N(C)C1 [Lincomycin]	145	Yes	–
Gentamicin	141	Yes	IC50 (+IPTG) ([1]; induced AS-rplL/J cells, 400 μM IPTG): 0.01919 µg/mL; IC50 (−IPTG) ([1]; non-induced AS-rplL/J cells, 0 μM IPTG): 2.715 µg/mL
C[C@H]1c2cccc(O)c2C(=O)C2=C(O)[C@]3(O)C(=O)C(C(N)=O)=C(O)[C@@H](N(C)C)[C@@H]3[C@@H](O)[C@@H]21 [Doxycycline]	15	–	–
CC[C@H](C)[C@H](N)C1=N[C@H](C(=O)N[C@@H](CC(C)C)C(=O)N[C@H](CCC(=O)O)C(=O)N[C@H](C(=O)N[C@H]2CCCCNC(=O)[C@H](CC(N)=O)NC(=O)[C@@H](CC(=O)O)NC(=O)[C@H](Cc3cnc[nH]3)NC(=O)[C@@H](Cc3ccccc3)NC(=O)[C@H]([C@@H](C)CC)NC(=O)[C@@H](CCCN)NC2=O)[C@@H](C)CC)CS1 [Bacitracin] ({Ileψ(thiazoline)Cys}-L[dE]IK[dOrn]I[dF]H[dD]N; lactam 4-C)	1	No	IC50 ([1]; read-out: IC50 (+IPTG)): 4.68 µg/mL (≈ 3.29 µM); IC50 ([1]; read-out: IC50 (−IPTG)): 4.08 µg/mL (≈ 2.87 µM)
CN(C)[C@@H]1C(O)=C(C(N)=O)C(=O)[C@@]2(O)C(O)=C3C(=O)c4c(O)cccc4[C@@](C)(O)[C@H]3C[C@@H]12 [Tetracycline]	109	–	–
CC1COc2c(N3CCN(C)CC3)c(F)cc3c(=O)c(C(=O)O)cn1c23 (centres unmarked) [Ofloxacin]	1	–	–
CN(C)c1ccc(O)c2c1C[C@H]1C[C@H]3[C@H](N(C)C)C(O)=C(C(N)=O)C(=O)[C@@]3(O)C(O)=C1C2=O [Minocycline]	172	–	–
CC[C@H]1OC(=O)[C@H](C)[C@@H](O[C@H]2C[C@@](C)(OC)[C@@H](O)[C@H](C)O2)[C@H](C)[C@@H](O[C@@H]2O[C@H](C)C[C@H](N(C)C)[C@H]2O)[C@](C)(O)C[C@@H](C)C(=O)[C@H](C)[C@@H](O)[C@]1(C)O [Erythromycin]	40	Yes	sensitivity of clones to the antibiotic ([2]; clones transcribing antisense to protein synthesis genes (L7/L12 & L10, L7/L12, L22, L18, rRNA, Elongation Factor G), initial experiments): increased sensitivity
CN[C@@H]1[C@H](O)[C@H](NC)[C@H]2O[C@@]3(O)C(=O)C[C@@H](C)O[C@H]3O[C@@H]2[C@H]1O [Spectinomycin]	–	Yes	IC50 ([1]; read-out: IC50 (+IPTG)): < 0.156 µg/mL
CN[C@H](CC(C)C)C(=O)N[C@H]1C(=O)N[C@@H](CC(N)=O)C(=O)N[C@H]2C(=O)N[C@H]3C(=O)N[C@H](C(=O)N[C@H](C(=O)O)c4cc(O)cc(O)c4-c4cc3ccc4O)[C@H](O)c3ccc(c(Cl)c3)Oc3cc2cc(c3O[C@@H]2O[C@H](CO)[C@@H](O)[C@H](O)[C@H]2O[C@H]2C[C@](C)(N)[C@H](O)[C@H](C)O2)Oc2ccc(cc2Cl)[C@H]1O [Vancomycin]	2	No	IC50 ([1]; read-out: IC50 (+IPTG)): 72.5 µg/mL (≈ 50.1 µM); IC50 ([1]; read-out: IC50 (−IPTG)): 145 µg/mL (≈ 100 µM)
CCn1cc(C(=O)O)c(=O)c2ccc(C)nc21 [Nalidixic acid]	1	No	sensitivity of clone to the antibiotic ([2]; clone transcribing antisense to rplL and rplJ (AS-rplL/J)): does not show increased sensitivity
O=C(N[C@H](CO)[C@H](O)c1ccc([N+](=O)[O-])cc1)C(Cl)Cl [Chloramphenicol]	307	Yes	–
NC[C@H]1O[C@H](O[C@H]2[C@H](O)[C@@H](O[C@H]3O[C@H](CO)[C@@H](O)[C@H](N)[C@H]3O)[C@H](N)C[C@@H]2N)[C@H](N)C[C@@H]1O [Tobramycin]	51	Yes	–
CO/N=C(\C(=O)N[C@@H]1C(=O)N2C(C(=O)O)=C(COC(C)=O)CS[C@H]12)c1csc(N)n1 [Cefotaxime]	1	No	–
[H]/N=C(/N)N[C@H]1[C@H](O)[C@@H](O)[C@H](O[C@@H]2O[C@@H](C)[C@](O)(C=O)[C@H]2O[C@@H]2O[C@@H](CO)[C@H](O)[C@@H](O)[C@@H]2NC)[C@@H](N/C(N)=N\[H])[C@@H]1O [Streptomycin]	70	Yes	–
CO[C@@]1(NC(=O)Cc2cccs2)C(=O)N2C(C(=O)O)=C(COC(N)=O)CS[C@@H]21 [Cefoxitin]	1	No	–
